Assay results taken from US12509460B2 (Skyhawk Therapeutics, Inc., priority 2019, dated 2025).
pEC50: −log10 of the molar value. Like-named read-outs stand apart in the source and are kept apart here.

How the values were obtained:
[1] = Quantitative splicing assay (HTT), qPCR; format: cell-based, human; conditions: Homo sapiens, GM04724, 24 h, GM04724 lymphoblasts, read-out: HTT Splicing: E49-50 EC50
In short: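 Patient lymphoblasts (50,000 cells/well) dosed immediately after plating for 24 h at 2.5 uM to 0.15 nM in 0.1% DMSO. Lysed, cDNA made directly from cells, and inclusion of the intron 49 cryptic exon quantified by TaqMan qPCR.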

[2] = system: mHTT protein in GM04724 (CAG 70/20) Huntington's disease patient lymphoblast cells; assay: mHTT protein assay, 2B7-MW1 assay via Mesoscale Discovery (MSD); format: cell-based, human
In short: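 Patient lymphoblasts treated 48 h with compound from 10 μM to 0.6 nM. mHTT quantified by MSD 2B7-MW1 immunoassay, whose signal depends on polyQ expansion and HTT size. Viability measured on a replicate plate by CellTiter Glo.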

[3] = system: SMN protein in spinal muscular atrophy (SMA) patient fibroblasts (GM03813, Coriell); assay: SMN protein assay, Mesoscale Discovery (MSD); format: cell-based, human; conditions: read-out: SMN2 protein EC50
In short: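 SMA patient fibroblasts (GM03813) seeded at 7000 cells/well and exposed to compound at 2.5 μM to 0.6 nM for 48 hours. Lysates assayed for SMN by MSD immunoassay, with absolute SMN amount calculated from a per-plate SMN standard curve (1 μg/ml to 19.5 pg/ml).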

[4] = system: SMN FL and SMN Δ7 in spinal muscular atrophy (SMA) patient fibroblasts (GM03813, Coriell); assay: Quantitative splicing assay (SMN), qPCR; format: cell-based, human; conditions: Homo sapiens, Fibroblast, 24 h, 24 h, read-out: SMN2 Splicing FL EC50
Procedure: Spinal muscular atrophy (SMA) patient fibroblasts (GM03813, Coriell) are plated in 96-well plates at 50,000 cells/well. […] Treated cells are lysed and cDNA synthesized using the Fast Advanced Cells-to-Ct kit (Thermofisher A35378) according to the manufacturer's instructions. 2 μL of each cDNA are used in qPCR reactions. […] Reactions are run in a Quant Studio 6 qPCR instrument with default settings.

MDR1 = assay: Blood-brain-barrier (BBB) penetration potential via MDCK-MDR1 permeability assay; conditions: dog, MDCK-MDR1, pH 7.4, MDCK-MDR1: Efflux
MDR1 (P-gp) = assay: as above; conditions: dog; for Papp A→B at 120 min, 5 μM: MDCK-MDR1, pH 7.4, MDCK-MDR1: Papp A-B; for Papp B→A at 120 min, 5 μM: MDCK-MDR1, pH 7.4, MDCK-MDR1: Papp B-A
[5] = system: MDR1-MDCK cell monolayers; assay: as above
[6] = GM04724 (CAG 70/20) Huntington's disease patient lymphoblasts
[7] = SMA patient fibroblasts (GM03813), 48 hours
[8] = SMA patient fibroblasts (GM03813)
[9] = GM04724 Huntington's disease patient lymphoblasts
[10] = SMA patient fibroblasts GM03813, 48 hours, MSD
[11] = SMA patient fibroblasts GM03813, 24 h, qPCR

| Compound | pEC50 [1] | pEC50 [2, 6] | pEC50 [3, 7] | pEC50 [4, 8] | efflux ratio at 120 min, 5 μM (MDR1) | Papp A→B at 120 min, 5 μM (MDR1 (P-gp); A-B) | Papp B→A at 120 min, 5 μM (MDR1 (P-gp); B-A) | MDCK-MDR1: % Recov A-B ([5]; A-B) | MDCK-MDR1: % Recov B-A ([5]; B-A) | pEC50 ([1]; qPCR) | pEC50 [2, 9] | pEC50 [3, 10] | pEC50 [4, 11] | efflux ratio at 120 min, 5 μM (MDR1; efflux ratio) | Papp A→B at 120 min, 5 μM (MDR1 (P-gp); A-B direction) | Papp B→A at 120 min, 5 μM (MDR1 (P-gp); B-A direction) | MDCK-MDR1: % Recov A-B ([5]; A-B direction) | MDCK-MDR1: % Recov B-A ([5]; B-A direction) |
| --- | --- | --- | --- | --- | --- | --- | --- | --- | --- | --- | --- | --- | --- | --- | --- | --- | --- | --- |
| Cc1nc2cc(O)c(-c3ccc(N(C)[C@@H]4C[C@H]5CC[C@H](N5)[C@@H]4F)nn3)cc2o1 [Compound 117A, 6-(6-(((1S,2S,3R,5R)-2-fluoro-8-azabicyclo[3.2.1]octan-3-yl)(methyl)amino)pyridazin-3-yl)-2-methylbenzo[d]oxazol-5-ol] | 7.00 to 7.29 | 7.30 to 7.80 | 7.30 to 7.80 | 6.30 to 7.00 | 6 | 6.87 ×10⁻⁶ cm/s | 39.9 ×10⁻⁶ cm/s | 84% | 97% | – | – | – | – | – | – | – | – | – |
| Cc1cnc(-c2ccc(-c3ccc(N(C)[C@H]4C[C@@H]5CCC[C@@H](N5)[C@H]4F)nn3)c(O)c2)cn1 [Compound 26B, 2-(6-(((1R,2R,3S,5S)-2-fluoro-9-azabicyclo[3.3.1]nonan-3-yl)(methyl)amino)pyridazin-3-yl)-5-(5-methylpyrazin-2-yl)phenol] | – | – | – | – | – | – | – | – | – | 7.00 to 7.29 | 7.82 to 11.00 | 7.82 to 11.00 | 7.00 to 7.29 | 16 | 2.76 ×10⁻⁶ cm/s | 45.1 ×10⁻⁶ cm/s | 60% | 81% |
| CN(c1ccc(-c2cc(F)c(-c3ccn(C)c(=O)c3)cc2O)nn1)[C@@H]1C[C@H]2CC[C@H](N2)[C@@H]1F [Compound 1A, 4-(2-fluoro-4-(6-(((1S,2S,3R,5R)-2-fluoro-8-azabicyclo[3.2.1]octan-3-yl)(methyl)amino)pyridazin-3-yl)-5-hydroxyphenyl)-1-methylpyridin-2(1H)-one] | – | – | – | – | – | – | – | – | – | 7.82 to 11.00 | 7.82 to 11.00 | 7.82 to 11.00 | 7.82 to 11.00 | 81 | 0.61 ×10⁻⁶ cm/s | 49.3 ×10⁻⁶ cm/s | 83% | 88% |
| CCN(c1ccc(-c2ccc(-c3cn[nH]c3)cc2O)nn1)[C@@H]1C[C@H]2CC[C@H](N2)[C@@H]1F [Compound 12A, 2-(6-(ethyl((1S,2S,3R,5R)-2-fluoro-8-azabicyclo[3.2.1]octan-3-yl)amino)pyridazin-3-yl)-5-(1H-pyrazol-4-yl)phenol] | – | – | – | – | – | – | – | – | – | 7.00 to 7.29 | 7.30 to 7.80 | 7.30 to 7.80 | 6.30 to 7.00 | 27 | 0.89 ×10⁻⁶ cm/s | 23.6 ×10⁻⁶ cm/s | 72% | 74% |
| CN(c1ccc(-c2cc3occc(=O)c3cc2O)nn1)[C@H]1C[C@@H]2CC[C@@H](N2)[C@H]1F [Compound 43B, 7-(6-(((1R,2R,3S,5S)-2-fluoro-8-azabicyclo[3.2.1]octan-3-yl)(methyl)amino)pyridazin-3-yl)-6-hydroxy-4H-chromen-4-one] | – | – | – | – | – | – | – | – | – | 7.82 to 11.00 | 7.82 to 11.00 | 7.82 to 11.00 | 7.82 to 11.00 | 12 | 2.32 ×10⁻⁶ cm/s | 28.3 ×10⁻⁶ cm/s | 66% | 48% |
| CN(c1ccc(-c2cc3c(=O)n(C)ccc3s2)nn1)[C@H]1C[C@@H]2CC[C@@H](N2)[C@H]1F (single isomer, unassigned) [Compound 68B] | – | – | – | – | – | – | – | – | – | 7.00 to 7.29 | 6.30 to 7.00 | 7.30 to 7.80 | 7.00 to 7.29 | 113 | 0.4 ×10⁻⁶ cm/s | 44.7 ×10⁻⁶ cm/s | 92% | 91% |
| C#Cc1ccc(-c2ccc(N(C)[C@H]3C[C@@H]4CC[C@@H](N4)[C@H]3F)nn2)c(O)c1 [Compound 10B, 5-ethynyl-2-(6-(((1R,2R,3S,5S)-2-fluoro-8-azabicyclo[3.2.1]octan-3-yl)(methyl)amino)pyridazin-3-yl)phenol] | – | – | – | – | – | – | – | – | – | 7.00 to 7.29 | 7.00 to 7.29 | 7.82 to 11.00 | 7.00 to 7.29 | 2 | 11.2 ×10⁻⁶ cm/s | 21.2 ×10⁻⁶ cm/s | 52% | 82% |
| CN(c1ccc(-c2cc3cnn(C)c3cc2O)nn1)[C@@H]1C[C@H]2CC[C@H](N2)[C@@H]1F [Compound 76A, 5-(6-(((1S,2S,3R,5R)-2-fluoro-8-azabicyclo[3.2.1]octan-3-yl)(methyl)amino)pyridazin-3-yl)-1-methyl-1H-indazol-6-ol] | – | – | – | – | – | – | – | – | – | 6.30 to 7.00 | 7.30 to 7.80 | 7.30 to 7.80 | 6.30 to 7.00 | 12 | 5.55 ×10⁻⁶ cm/s | 69.2 ×10⁻⁶ cm/s | 83% | 88% |
| CN(c1ccc(-c2cc3c(=O)n(C)cnc3cc2O)nn1)[C@@H]1C[C@H]2CC[C@H](N2)[C@@H]1F [Compound 85A, 6-(6-(((1S,2S,3R,5R)-2-fluoro-8-azabicyclo[3.2.1]octan-3-yl)(methyl)amino)pyridazin-3-yl)-7-hydroxy-3-methylquinazolin-4(3H)-one] | – | – | – | – | – | – | – | – | – | 7.30 to 7.80 | 7.82 to 11.00 | 7.82 to 11.00 | 7.30 to 7.80 | 74 | 0.67 ×10⁻⁶ cm/s | 49.2 ×10⁻⁶ cm/s | 99% | 99% |
| Cc1nc2cc(-c3ccc(N(C)[C@@H]4C[C@H]5CC[C@H](N5)[C@@H]4F)nn3)c(O)cc2s1 [Compound 115A, 5-(6-(((1S,2S,3R,5R)-2-fluoro-8-azabicyclo[3.2.1]octan-3-yl)(methyl)amino)pyridazin-3-yl)-2-methylbenzo[d]thiazol-6-ol] | 7.30 to 7.80 | 7.82 to 11.00 | 7.82 to 11.00 | 7.30 to 7.80 | 8 | 4.7 ×10⁻⁶ cm/s | 39.3 ×10⁻⁶ cm/s | 93% | 78% | – | – | – | – | – | – | – | – | – |
| COc1cnc(-c2ccc(-c3ccc(N(C)[C@@H]4C[C@H]5CCC[C@H](N5)[C@@H]4F)nn3)c(O)c2)cn1 [Compound 29A, 2-(6-(((1S,2S,3R,5R)-2-fluoro-9-azabicyclo[3.3.1]nonan-3-yl)(methyl)amino)pyridazin-3-yl)-5-(5-methoxypyrazin-2-yl)phenol] | – | – | – | – | – | – | – | – | – | 7.30 to 7.80 | 7.30 to 7.80 | 7.82 to 11.00 | 5.00 to 6.30 | 7 | 1.85 ×10⁻⁶ cm/s | 12.6 ×10⁻⁶ cm/s | 26% | 60% |
| Cc1cc(=O)c2cc(-c3ccc(N(C)[C@H]4C[C@@H]5CC[C@@H](N5)[C@H]4F)nn3)c(O)cc2o1 [Compound 50B, 6-(6-(((1R,2R,3S,5S)-2-fluoro-8-azabicyclo[3.2.1]octan-3-yl)(methyl)amino)pyridazin-3-yl)-7-hydroxy-2-methyl-4H-chromen-4-one] | – | – | – | – | – | – | – | – | – | 7.82 to 11.00 | 7.82 to 11.00 | 7.82 to 11.00 | 7.82 to 11.00 | 29 | 1.81 ×10⁻⁶ cm/s | 51.8 ×10⁻⁶ cm/s | 80% | 95% |
| CN(c1ccc(-c2ccc(C#N)cc2O)nn1)[C@@H]1C[C@H]2CCC[C@H](N2)[C@@H]1F [Compound 39A, 4-(6-(((1S,2S,3R,5R)-2-fluoro-9-azabicyclo[3.3.1]nonan-3-yl)(methyl)amino)pyridazin-3-yl)-3-hydroxybenzonitrile] | – | – | – | – | – | – | – | – | – | 7.30 to 7.80 | 7.30 to 7.80 | 7.82 to 11.00 | 7.30 to 7.80 | 5 | 8.1 ×10⁻⁶ cm/s | 40.5 ×10⁻⁶ cm/s | 83% | 76% |
